Results reported in ChEMBL document CHEMBL2163201, “Discovery of novel pyrrolopyridazine scaffolds as transient receptor potential vanilloid (TRPV1) antagonists” (Bioorg Med Chem Lett, 2012).
In brackets after ≈: the same amount, converted by molar mass.

What was measured:
[1] = Equilibrium solubility of the compound in DMSO preincubated for 4 hrs; format: physicochemical
[2] = Apparent permeability across apical to basolateral side of human Caco2 cells; format: ADME, cell-based; conditions: Caco-2

CCN(CCO)C(=O)c1cc2cccnn2c1-c1cccc(C)c1
solubility at 4 h [1]: 330 µM (≈ 107 µg/mL)

CCN(CCO)C(=O)c1cc2cc(OC)cnn2c1-c1cccc(C(F)(F)F)c1
solubility at 4 h [1]: 25 µM (≈ 10.2 µg/mL)

CCN(CCO)C(=O)c1cc2cc(C)cnn2c1-c1cccc(C(F)(F)F)c1
solubility at 4 h [1]: 190 µM (≈ 74.4 µg/mL)

CCN(CCO)C(=O)c1cc2cccnn2c1-c1cccc(C(=O)Nc2ccccc2)c1
solubility at 4 h [1]: 25 µM (≈ 10.7 µg/mL)

CCN(CCO)C(=O)c1nc2ccccn2c1-c1cccc(C(F)(F)F)c1
solubility at 4 h [1]: 270 µM (≈ 102 µg/mL)

O=C(Cc1cc2cccnn2c1-c1cccc(C(F)(F)F)c1)N1CCC[C@@H]1CO
solubility at 4 h [1]: 220 µM (≈ 88.7 µg/mL)

CCN(CCO)C(=O)c1cc2ccccn2c1-c1cccc(C(F)(F)F)n1
solubility at 4 h [1]: 360 µM (≈ 136 µg/mL)

CCN(CCO)C(=O)c1cc2ccccn2c1-c1cccc(OC)c1
Papp A→B [2]: 54 ×10⁻⁶ cm/s | solubility at 4 h [1]: 150 µM (≈ 50.8 µg/mL)

CCN(CCO)C(=O)c1cc2c(C)ccnn2c1-c1cccc(C(F)(F)F)c1
solubility at 4 h [1]: 32 µM (≈ 12.5 µg/mL)

CCN(CCO)C(=O)c1cc2cccnc2n1-c1cccc(C(F)(F)F)c1
solubility at 4 h [1]: > 300 µM

CCN(CCO)C(=O)c1nc2cccnc2n1-c1cccc(C(F)(F)F)c1
solubility at 4 h [1]: 24 µM (≈ 9.08 µg/mL)

CCN(Cc1ccn[nH]1)C(=O)c1cc2cccnn2c1-c1cccc(C(F)(F)F)c1
solubility at 4 h [1]: 150 µM (≈ 62 µg/mL)

CCN(CCO)C(=O)c1cc2cccnn2c1-c1cccc(OC)c1
solubility at 4 h [1]: 340 µM (≈ 115 µg/mL)

CCN(CCO)C(=O)c1oc2cccnc2c1-c1cccc(C(F)(F)F)c1
solubility at 4 h [1]: > 400 µM

CCN(CCO)C(=O)c1cc2ccc(C)nn2c1-c1cccc(C(F)(F)F)c1
solubility at 4 h [1]: 28 µM (≈ 11 µg/mL)

O=C(c1cc2cccnn2c1-c1cccc(C(F)(F)F)c1)N1CCC[C@H]1CO
solubility at 4 h [1]: 360 µM (≈ 140 µg/mL)

CCN(CCO)C(=O)c1cc2ccncn2c1-c1cccc(C(F)(F)F)c1
solubility at 4 h [1]: 240 µM (≈ 90.6 µg/mL)

COc1cccc(-c2c(C(=O)N3CCCCC3CO)cc3ccccn23)c1 (stereo unspecified)
Papp A→B [2]: 58 ×10⁻⁶ cm/s | solubility at 4 h [1]: 260 µM (≈ 94.8 µg/mL)

N#Cc1cccc(-c2c(C(=O)N3CCCCC3CO)cc3ccccn23)c1 (stereo unspecified)
solubility at 4 h [1]: 250 µM (≈ 89.9 µg/mL)

CCCN(CCO)C(=O)c1cc2ccccn2c1-c1ccccc1
Papp A→B [2]: 60 ×10⁻⁶ cm/s | solubility at 4 h [1]: 280 µM (≈ 90.3 µg/mL)

CCN(CCO)C(=O)c1cc2ccccn2c1-c1cccc(OC)n1
Papp A→B [2]: 56 ×10⁻⁶ cm/s | solubility at 4 h [1]: 190 µM (≈ 64.5 µg/mL)

CCN(CCO)C(=O)c1cc2cccnn2c1Cc1cccc(C(F)(F)F)c1
solubility at 4 h [1]: 170 µM (≈ 66.5 µg/mL)

COc1ccc(-c2c(C(=O)N3CCC[C@H]3CO)cc3cccnn23)cc1
solubility at 4 h [1]: > 400 µM

CCN(CCO)C(=O)c1cc2cccnn2c1-c1cccc(C(F)(F)F)c1
Papp A→B [2]: 42 ×10⁻⁶ cm/s | solubility at 4 h [1]: 200 µM (≈ 75.5 µg/mL)

CCN(CCO)C(=O)c1cc2ccccn2c1-c1cccc(C)c1
solubility at 4 h [1]: 260 µM (≈ 83.8 µg/mL)

CCN(CCO)C(=O)c1cc2cccnn2c1-c1ccc(C(F)(F)F)cc1
solubility at 4 h [1]: 22 µM (≈ 8.3 µg/mL)
